Literature values, collected in US11058735B2, “Formulations containing pomegranate seed oil, rosa canina fruit oil and inula viscosa oleoresin or extract” (POMEGA, INC., priority 2014, dated 2021).

Settings: compared with grape seed extract, background statement

In the case of `CCCC\C=C/C=C/C=C\CCCCCCCC(=O)O` [Punicic acid], the “antioxidant power relative to grape seed extract” value is given as “approximately 10 times”.
